Values quoted from earlier work as cited in PMC6105163, “Abaloparatide Exerts Bone Anabolic Effects with Less Stimulation of Bone Resorption-Related Factors: A Comparison with Teriparatide” (Calcified Tissue International, 2018).
Ends that are not written are not given here.

What was measured:
cAMP and PKC = conditions: ref [24]; cited from earlier work
Text: (§1) There is another possibility that the two peptides could show the different activity on protein kinase C (PKC). PKC is the downstream signal of PTH1R and is involved in the stimulation of bone resorption-related factors and bone catabolism. In fact, ostabolin, an amidated form of human PTH(1–31), differs from PTH(1–34) in PKC activation.

bone turnover = conditions: preclinical study, ref [25], cited from earlier work
Text: as §1

bone mass = conditions: cited from earlier work; for effect of continuous infusion: in vivo; for bone mass, intermittent administration: ref [2], [3]
Text: Parathyroid hormone (PTH) and PTH-related protein (PTHrP) have a common G protein-coupled receptor, PTH1R, which plays a pivotal role in bone turnover and calcium homeostasis.

Substance | cAMP accumulation and PKC activation (cAMP and PKC) | bone resorption (bone turnover; vs PTH(1–34)) | bone formation (bone turnover) | effect of continuous infusion (bone mass) | bone mass, intermittent administration (bone mass)
ostabolin: an amidated form of human PTH(1–31) (SVSEIQLMHNLGKHLNSMERVEWLRKKLQDV-NH2; UniProt P01270 32-62, looked up, fragment) | cAMP accumulation without activating PKC | less effect on bone resorption than PTH(1–34) | stimulated bone formation similar to PTH(1–34) | – | –
PTHrP: PTH-related protein | – | – | – | caused bone loss and hypercalcemia | increased bone mass
PTH: Parathyroid hormone | – | – | – | caused bone loss and hypercalcemia | increased bone mass
